Assay results taken from the NIST ThermoML archive (doi:10.1021/acs.jced.8b00725).
Numbers after ± are expanded uncertainties.

conditions: 328.15 K; 100 kPa; Liquid; Vibrating tube method

Row | Structure (SMILES) | mass density
1 | CC[NH+](CC)CC.CS(=O)(=O)[O-] [triethylammonium methanesulfonate] | 1097.26 ± 8.4 kg/m3
2 | O=C(O)c1ccccc1O.OCCN(CCO)CCO [triethanolammonium salicylate] | 1248.43 ± 11 kg/m3
3 | CC(=O)O.CCN(CC)CC [triethylammonium acetate] | 986.96 ± 6.8 kg/m3
4 | CC[NH+](CC)CC.O=C([O-])c1ccccc1 [triethylammonium benzoate] | 1077.68 ± 8.1 kg/m3

same assay, conditions: 333.15 K; 100 kPa; Liquid; Vibrating tube method

Row | Structure (SMILES) | mass density
5 | CC[NH2+]CC.O=C([O-])C(F)(F)F [diethylammonium trifluoroacetate] | 1150.69 ± 9.3 kg/m3
6 | O=S(=O)(O)O.OCCN(CCO)CCO [triethanolammonium hydrogen sulfate] | 1416.33 ± 14 kg/m3
7 | CC[NH+](CC)CC.O=S(=O)([O-])C(F)(F)F [triethylammonium trifluoromethanesulfonate] | 1236.53 ± 11 kg/m3
8 | CC[NH2+]CC.CS(=O)(=O)[O-] [diethylammonium methanesulfonate] | 1117.5 ± 8.8 kg/m3
9 | CCC(=O)[O-].OCC[NH+](CCO)CCO [triethanolammonium propanoate] | 1114.84 ± 6.7 kg/m3
10 | CC[NH2+]CC.O=S(=O)([O-])O [diethylammonium hydrogen sulfate] | 1357.53 ± 13 kg/m3
11 | CCN(CC)CC.O=C(O)c1ccccc1O [triethylammonium salicylate] | 1073.13 ± 8.1 kg/m3
12 | CC[NH+](C)C.O=C([O-])C(F)(F)F [N,N-dimethyl-N-ethylammonium trifluoroacetate] | 1178.33 ± 9.8 kg/m3
13 | CC[NH+](CC)CC.O=C([O-])C(F)(F)F [triethylammonium trifluoroacetate] | 1132.82 ± 9 kg/m3
14 | CC[NH+](CC)CC.CS(=O)(=O)[O-] [triethylammonium methanesulfonate] | 1093.99 ± 8.4 kg/m3
15 | O=C(O)c1ccccc1O.OCCN(CCO)CCO [triethanolammonium salicylate] | 1245.42 ± 11 kg/m3
16 | CC(=O)O.CCN(CC)CC [triethylammonium acetate] | 983.14 ± 6.7 kg/m3
17 | CC[NH+](CC)CC.O=C([O-])c1ccccc1 [triethylammonium benzoate] | 1074.3 ± 8.1 kg/m3

same assay, conditions: 338.15 K; 100 kPa; Liquid; Vibrating tube method

Row | Structure (SMILES) | mass density
18 | CC[NH2+]CC.O=C([O-])C(F)(F)F [diethylammonium trifluoroacetate] | 1146.65 ± 9.2 kg/m3
19 | CCN(CC)CC.O=P(O)(O)O [triethylammonium dihydrogen phosphate] | 1329.48 ± 12 kg/m3
20 | O=S(=O)(O)O.OCCN(CCO)CCO [triethanolammonium hydrogen sulfate] | 1413.85 ± 14 kg/m3
21 | CC[NH+](CC)CC.O=S(=O)([O-])C(F)(F)F [triethylammonium trifluoromethanesulfonate] | 1232.58 ± 11 kg/m3
22 | CC[NH2+]CC.CS(=O)(=O)[O-] [diethylammonium methanesulfonate] | 1114.27 ± 8.7 kg/m3
23 | CCC(=O)[O-].OCC[NH+](CCO)CCO [triethanolammonium propanoate] | 1111.68 ± 6.7 kg/m3
24 | CC[NH2+]CC.O=S(=O)([O-])O [diethylammonium hydrogen sulfate] | 1354.45 ± 13 kg/m3
25 | CCN(CC)CC.O=C(O)c1ccccc1O [triethylammonium salicylate] | 1069.93 ± 8 kg/m3
26 | CC[NH+](C)C.O=C([O-])C(F)(F)F [N,N-dimethyl-N-ethylammonium trifluoroacetate] | 1174.09 ± 9.7 kg/m3
27 | CC[NH+](CC)CC.O=C([O-])C(F)(F)F [triethylammonium trifluoroacetate] | 1128.74 ± 8.9 kg/m3
28 | CC[NH+](CC)CC.CS(=O)(=O)[O-] [triethylammonium methanesulfonate] | 1090.72 ± 8.3 kg/m3
29 | O=C(O)c1ccccc1O.OCCN(CCO)CCO [triethanolammonium salicylate] | 1242.4 ± 11 kg/m3
30 | CC(=O)O.CCN(CC)CC [triethylammonium acetate] | 979.32 ± 6.7 kg/m3
31 | CC[NH+](CC)CC.O=C([O-])c1ccccc1 [triethylammonium benzoate] | 1070.92 ± 8 kg/m3

same assay, conditions: 343.15 K; 100 kPa; Liquid; Vibrating tube method

Row | Structure (SMILES) | mass density
32 | CC[NH2+]CC.O=C([O-])C(F)(F)F [diethylammonium trifluoroacetate] | 1142.62 ± 9.2 kg/m3
33 | CCN(CC)CC.O=P(O)(O)O [triethylammonium dihydrogen phosphate] | 1327.08 ± 12 kg/m3
34 | O=S(=O)(O)O.OCCN(CCO)CCO [triethanolammonium hydrogen sulfate] | 1411.31 ± 14 kg/m3
35 | CC[NH+](CC)CC.O=S(=O)([O-])C(F)(F)F [triethylammonium trifluoromethanesulfonate] | 1228.65 ± 11 kg/m3
36 | CC[NH2+]CC.CS(=O)(=O)[O-] [diethylammonium methanesulfonate] | 1111.06 ± 8.7 kg/m3
37 | CCC(=O)[O-].OCC[NH+](CCO)CCO [triethanolammonium propanoate] | 1108.5 ± 6.7 kg/m3
38 | CC[NH2+]CC.O=S(=O)([O-])O [diethylammonium hydrogen sulfate] | 1351.38 ± 13 kg/m3
39 | CCN(CC)CC.O=C(O)c1ccccc1O [triethylammonium salicylate] | 1066.73 ± 8 kg/m3
40 | CC[NH+](C)C.O=C([O-])C(F)(F)F [N,N-dimethyl-N-ethylammonium trifluoroacetate] | 1169.9 ± 9.6 kg/m3
41 | CC[NH+](CC)CC.O=C([O-])C(F)(F)F [triethylammonium trifluoroacetate] | 1124.67 ± 8.9 kg/m3
42 | CC[NH+](CC)CC.CS(=O)(=O)[O-] [triethylammonium methanesulfonate] | 1087.47 ± 8.3 kg/m3
43 | O=C(O)c1ccccc1O.OCCN(CCO)CCO [triethanolammonium salicylate] | 1239.42 ± 11 kg/m3
44 | CC(=O)O.CCN(CC)CC [triethylammonium acetate] | 975.48 ± 6.6 kg/m3
45 | CC[NH+](CC)CC.O=C([O-])c1ccccc1 [triethylammonium benzoate] | 1067.55 ± 8 kg/m3

same assay, conditions: 348.15 K; 100 kPa; Liquid; Vibrating tube method

Row | Structure (SMILES) | mass density
46 | CC[NH2+]CC.O=C([O-])C(F)(F)F [diethylammonium trifluoroacetate] | 1138.55 ± 9.1 kg/m3
47 | CCN(CC)CC.O=P(O)(O)O [triethylammonium dihydrogen phosphate] | 1324.69 ± 12 kg/m3
48 | O=S(=O)(O)O.OCCN(CCO)CCO [triethanolammonium hydrogen sulfate] | 1408.87 ± 14 kg/m3
49 | CC[NH+](CC)CC.O=S(=O)([O-])C(F)(F)F [triethylammonium trifluoromethanesulfonate] | 1224.73 ± 11 kg/m3
50 | CC[NH2+]CC.CS(=O)(=O)[O-] [diethylammonium methanesulfonate] | 1107.86 ± 8.6 kg/m3
51 | CCC(=O)[O-].OCC[NH+](CCO)CCO [triethanolammonium propanoate] | 1105.29 ± 6.6 kg/m3
52 | CC[NH2+]CC.O=S(=O)([O-])O [diethylammonium hydrogen sulfate] | 1348.31 ± 13 kg/m3
53 | CCN(CC)CC.O=C(O)c1ccccc1O [triethylammonium salicylate] | 1063.54 ± 7.9 kg/m3
54 | CC[NH+](C)C.O=C([O-])C(F)(F)F [N,N-dimethyl-N-ethylammonium trifluoroacetate] | 1165.69 ± 9.5 kg/m3
55 | CC[NH+](CC)CC.O=C([O-])C(F)(F)F [triethylammonium trifluoroacetate] | 1120.6 ± 8.8 kg/m3
56 | CC[NH+](CC)CC.CS(=O)(=O)[O-] [triethylammonium methanesulfonate] | 1084.22 ± 8.2 kg/m3
57 | O=C(O)c1ccccc1O.OCCN(CCO)CCO [triethanolammonium salicylate] | 1236.44 ± 11 kg/m3
58 | CC(=O)O.CCN(CC)CC [triethylammonium acetate] | 971.62 ± 6.6 kg/m3
59 | CC[NH+](CC)CC.O=C([O-])c1ccccc1 [triethylammonium benzoate] | 1064.18 ± 7.9 kg/m3

same assay, conditions: 353.15 K; 100 kPa; Liquid; Vibrating tube method

Row | Structure (SMILES) | mass density
60 | CC[NH2+]CC.O=C([O-])C(F)(F)F [diethylammonium trifluoroacetate] | 1134.5 ± 9 kg/m3
61 | CCN(CC)CC.O=P(O)(O)O [triethylammonium dihydrogen phosphate] | 1322.31 ± 12 kg/m3
62 | O=S(=O)(O)O.OCCN(CCO)CCO [triethanolammonium hydrogen sulfate] | 1406.37 ± 14 kg/m3
63 | CC[NH+](CC)CC.O=S(=O)([O-])C(F)(F)F [triethylammonium trifluoromethanesulfonate] | 1220.84 ± 10 kg/m3
64 | CC[NH2+]CC.CS(=O)(=O)[O-] [diethylammonium methanesulfonate] | 1104.68 ± 8.5 kg/m3
65 | CCC(=O)[O-].OCC[NH+](CCO)CCO [triethanolammonium propanoate] | 1102.06 ± 6.6 kg/m3
66 | CC[NH2+]CC.O=S(=O)([O-])O [diethylammonium hydrogen sulfate] | 1345.25 ± 13 kg/m3
67 | CCN(CC)CC.O=C(O)c1ccccc1O [triethylammonium salicylate] | 1060.36 ± 7.9 kg/m3
68 | CC[NH+](C)C.O=C([O-])C(F)(F)F [N,N-dimethyl-N-ethylammonium trifluoroacetate] | 1161.51 ± 9.5 kg/m3
69 | CC[NH+](CC)CC.O=C([O-])C(F)(F)F [triethylammonium trifluoroacetate] | 1116.54 ± 8.7 kg/m3
70 | CC[NH+](CC)CC.CS(=O)(=O)[O-] [triethylammonium methanesulfonate] | 1080.98 ± 8.2 kg/m3
71 | O=C(O)c1ccccc1O.OCCN(CCO)CCO [triethanolammonium salicylate] | 1233.42 ± 11 kg/m3
72 | CC(=O)O.CCN(CC)CC [triethylammonium acetate] | 967.74 ± 6.5 kg/m3
73 | CC[NH+](CC)CC.O=C([O-])c1ccccc1 [triethylammonium benzoate] | 1060.82 ± 7.9 kg/m3
